Measurements: ChEMBL document CHEMBL5260848, “Recent advancements in the development of bioactive pyrazoline derivatives” (Eur J Med Chem, 2020)
Converted amounts (≈) assume the structure as drawn.

Legend:
Homo sapiens = organism: Homo sapiens; assay: Selectivity index, ratio of Ki for human MAO-A to Ki for human MAO-B
[1] = target: T1, Amine oxidase [flavin-containing] A (Homo sapiens, UniProt P21397)
T1 sequence (P21397 whole entry): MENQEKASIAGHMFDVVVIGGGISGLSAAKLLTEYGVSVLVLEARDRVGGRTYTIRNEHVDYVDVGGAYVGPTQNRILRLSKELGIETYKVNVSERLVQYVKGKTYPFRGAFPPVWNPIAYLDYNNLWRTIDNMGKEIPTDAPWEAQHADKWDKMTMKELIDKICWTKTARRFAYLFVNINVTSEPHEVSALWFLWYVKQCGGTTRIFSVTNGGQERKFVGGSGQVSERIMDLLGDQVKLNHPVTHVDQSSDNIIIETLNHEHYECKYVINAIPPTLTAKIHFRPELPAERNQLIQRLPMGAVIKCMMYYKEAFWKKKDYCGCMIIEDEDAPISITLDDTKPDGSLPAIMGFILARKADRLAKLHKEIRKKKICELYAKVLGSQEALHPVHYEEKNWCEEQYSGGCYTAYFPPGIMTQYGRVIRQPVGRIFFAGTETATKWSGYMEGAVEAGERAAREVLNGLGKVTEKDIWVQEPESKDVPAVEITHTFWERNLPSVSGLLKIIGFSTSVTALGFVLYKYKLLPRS

[2] = target: T2, Amine oxidase [flavin-containing] B (Homo sapiens, UniProt P27338)
T2 sequence (P27338 whole entry): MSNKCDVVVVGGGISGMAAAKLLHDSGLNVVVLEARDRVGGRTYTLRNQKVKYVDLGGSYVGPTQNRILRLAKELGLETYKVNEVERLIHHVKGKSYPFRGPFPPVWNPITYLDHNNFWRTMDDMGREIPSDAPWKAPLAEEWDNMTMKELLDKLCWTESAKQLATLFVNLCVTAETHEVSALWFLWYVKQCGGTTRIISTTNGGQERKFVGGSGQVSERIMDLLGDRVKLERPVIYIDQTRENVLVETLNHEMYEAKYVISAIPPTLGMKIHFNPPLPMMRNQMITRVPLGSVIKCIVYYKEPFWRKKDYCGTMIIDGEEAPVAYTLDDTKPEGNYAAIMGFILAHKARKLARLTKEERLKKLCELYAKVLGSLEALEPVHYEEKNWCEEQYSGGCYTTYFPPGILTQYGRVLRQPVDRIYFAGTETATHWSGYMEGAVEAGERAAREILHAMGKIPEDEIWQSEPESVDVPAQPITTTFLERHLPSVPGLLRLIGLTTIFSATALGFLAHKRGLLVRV

Bacillus subtilis = assay: microbe, parasite or virus in culture; settings: 24 h
Candida albicans = assay: microbe, parasite or virus in culture; settings: 24 h
Pseudomonas aeruginosa = assay: microbe, parasite or virus in culture; settings: 24 h
Aspergillus niger = assay: Antifungal activity against Aspergillus niger incubated for 24 hrs by disc diffusion method; type: functional
Staphylococcus aureus = assay: microbe, parasite or virus in culture; settings: 24 h
[3] = tested on: Mycobacterium tuberculosis; assay: microbe, parasite or virus in culture; settings: 120 h
Escherichia coli = assay: Antibacterial activity against Escherichia coli incubated for 24 hrs by disc diffusion method; type: functional
Aspergillus fumigatus = assay: Antifungal activity against Aspergillus fumigatus incubated for 24 hrs by disc diffusion method; type: functional
Aspergillus flavus = assay: Antifungal activity against Aspergillus flavus incubated for 24 hrs by disc diffusion method; type: functional
Mus musculus [4] = organism: Mus musculus; assay: Antidepressant activity in mouse assessed as […] by tail suspension test; type: functional
Mus musculus [5] = organism: Mus musculus; assay: Antidepressant activity in mouse assessed as […] by forced swimming test; type: functional
Mus musculus [6] = organism: Mus musculus; assay: Antidepressant activity in Swiss albino mouse assessed as decrease in immobility time by forced swimming test; type: functional
Mus musculus [7] = organism: Mus musculus; assay: Antidepressant activity in Swiss albino mouse assessed as decrease in immobility time by tail suspension test; type: functional

Row | SMILES | Ratio Ki (Homo sapiens) | Ki [1] [nM] | Ki [2] [nM] | MIC (Bacillus subtilis) [µg/mL] | MIC (Candida albicans) [µg/mL] | MIC (Pseudomonas aeruginosa) [µg/mL] | MIC (Aspergillus niger) [µg/mL] | MIC (Staphylococcus aureus) [µg/mL] | MIC [3] [µg/mL] | MIC (Escherichia coli) [µg/mL] | MIC (Aspergillus fumigatus) [µg/mL] | MIC (Aspergillus flavus) [µg/mL] | other results
1 | CNC(=S)N1N=C(c2ccc(OC)cc2)CC1c1ccc(F)cc1 (stereo unspecified) | 0.000464 | 0.1 | 200 | – | – | – | – | – | – | – | – | – | –
2 | COc1ccc(C2CC(c3ccccc3)=NN2C(=O)NNS(=O)(=O)c2ccc(F)cc2F)cc1 (stereo unspecified) | – | – | – | 25 (≈ 51.4 µM) | 25 (≈ 51.4 µM) | 25 (≈ 51.4 µM) | 25 (≈ 51.4 µM) | 25 (≈ 51.4 µM) | 0.8 (≈ 1.64 µM) | 25 (≈ 51.4 µM) | 25 (≈ 51.4 µM) | 25 (≈ 51.4 µM) | –
3 | CCNC(=S)N1N=C(c2ccc(C)cc2)CC1c1ccc(F)cc1 (stereo unspecified) | 0.000464 | 0.1 | 200 | – | – | – | – | – | – | – | – | – | –
4 | Oc1ccc(C2=NNC(c3cccs3)C2)cc1 (stereo unspecified) | – | – | – | – | – | – | – | – | – | – | – | – | Time (Mus musculus [4]): 21.17 s; Time (Mus musculus [5]): 21.17 s
5 | COc1ccc(C2=NN(C(=S)Nc3ccccc3)C(c3ccc(F)cc3)C2)cc1 (stereo unspecified) | 0.000464 | 0.1 | 200 | – | – | – | – | – | – | – | – | – | –
6 | CNC(=S)N1N=C(c2ccc(Cl)cc2)CC1c1ccc(F)cc1 (stereo unspecified) | 0.000464 | 0.1 | 200 | – | – | – | – | – | – | – | – | – | –
7 | O=C(NNS(=O)(=O)c1ccc(F)cc1F)N1N=C(c2ccccc2)CC1c1ccccc1 (stereo unspecified) | – | – | – | 25 (≈ 54.8 µM) | 25 (≈ 54.8 µM) | 25 (≈ 54.8 µM) | 25 (≈ 54.8 µM) | 25 (≈ 54.8 µM) | 0.8 (≈ 1.75 µM) | 25 (≈ 54.8 µM) | 25 (≈ 54.8 µM) | 25 (≈ 54.8 µM) | –
8 | C=CCNC(=S)N1N=C(c2ccc(Cl)cc2)CC1c1ccc(F)cc1 (stereo unspecified) | 0.000464 | 0.1 | 200 | – | – | – | – | – | – | – | – | – | –
9 | c1coc(C2CC(c3cccc4ccccc34)=NN2)c1 (stereo unspecified) | – | – | – | – | – | – | – | – | – | – | – | – | Time (Mus musculus [4]): 21.17 s; Time (Mus musculus [5]): 21.17 s
10 | O=C(NNS(=O)(=O)c1ccc(F)cc1)N1N=C(c2ccccc2)CC1c1ccccc1 (stereo unspecified) | – | – | – | 25 (≈ 57 µM) | 25 (≈ 57 µM) | 25 (≈ 57 µM) | 25 (≈ 57 µM) | 25 (≈ 57 µM) | 0.8 (≈ 1.82 µM) | 25 (≈ 57 µM) | 25 (≈ 57 µM) | 25 (≈ 57 µM) | –
11 | Cc1nc(-c2ccc(Br)cc2)ccc1C1=NNC(c2ccc(Br)cc2)C1 (stereo unspecified) | – | – | – | – | – | – | – | – | – | – | – | – | Time (Mus musculus [6]): 66.67 s; Time (Mus musculus [7]): 70.33 s
12 | O=C(NNS(=O)(=O)c1ccc(F)cc1)N1N=C(c2ccc(F)cc2)CC1c1ccc(F)cc1 (stereo unspecified) | – | – | – | 25 (≈ 52.7 µM) | 25 (≈ 52.7 µM) | 25 (≈ 52.7 µM) | 25 (≈ 52.7 µM) | 25 (≈ 52.7 µM) | 0.8 (≈ 1.69 µM) | 25 (≈ 52.7 µM) | 25 (≈ 52.7 µM) | 25 (≈ 52.7 µM) | –
13 | Cc1nc(-c2cccc(Cl)c2Cl)ccc1C1=NNC(c2ccc(Br)cc2)C1 (stereo unspecified) | – | – | – | – | – | – | – | – | – | – | – | – | Time (Mus musculus [6]): 66.67 s; Time (Mus musculus [7]): 70.33 s
14 | O=C(NNS(=O)(=O)c1ccccc1)N1N=C(c2ccccc2)CC1c1ccc(Cl)cc1 (stereo unspecified) | – | – | – | 25 (≈ 55 µM) | 25 (≈ 55 µM) | 25 (≈ 55 µM) | 25 (≈ 55 µM) | 25 (≈ 55 µM) | 1.6 (≈ 3.52 µM) | 25 (≈ 55 µM) | 25 (≈ 55 µM) | 25 (≈ 55 µM) | –
15 | Cc1ccc(C2=NN(C(=S)Nc3ccccc3)C(c3ccc(F)cc3)C2)cc1 (stereo unspecified) | – | 0.1 | – | – | – | – | – | – | – | – | – | – | –
16 | C=CCNC(=S)N1N=C(c2ccc(OC)cc2)CC1c1ccc(F)cc1 (stereo unspecified) | – | 0.1 | 200 | – | – | – | – | – | – | – | – | – | –
17 | Fc1ccc(C2CC(c3ccccc3)=NN2C(=S)Nc2ccccc2)cc1 (stereo unspecified) | 0.000464 | 0.1 | 200 | – | – | – | – | – | – | – | – | – | –
18 | O=C(NNS(=O)(=O)c1ccc(F)cc1)N1N=C(c2ccccc2)CC1c1ccc(F)cc1 (stereo unspecified) | – | – | – | 25 (≈ 54.8 µM) | 25 (≈ 54.8 µM) | 25 (≈ 54.8 µM) | 25 (≈ 54.8 µM) | 25 (≈ 54.8 µM) | 0.8 (≈ 1.75 µM) | 25 (≈ 54.8 µM) | 25 (≈ 54.8 µM) | 25 (≈ 54.8 µM) | –
19 | Fc1ccc(C2CC(c3ccc(Cl)cc3)=NN2C(=S)Nc2ccccc2)cc1 (stereo unspecified) | 0.000464 | 0.1 | 200 | – | – | – | – | – | – | – | – | – | –
20 | CCNC(=S)N1N=C(c2ccc(OC)cc2)CC1c1ccc(F)cc1 (stereo unspecified) | 0.000464 | 0.1 | 200 | – | – | – | – | – | – | – | – | – | –
21 | CCNC(=S)N1N=C(c2ccccc2)CC1c1ccc(F)cc1 (stereo unspecified) | 0.000464 | 0.1 | 200 | – | – | – | – | – | – | – | – | – | –
22 | Cc1ccc(C2CC(c3ccccc3)=NN2C(=O)NNS(=O)(=O)c2ccc(F)cc2)cc1 (stereo unspecified) | – | – | – | 25 (≈ 55.2 µM) | 25 (≈ 55.2 µM) | 25 (≈ 55.2 µM) | 25 (≈ 55.2 µM) | 25 (≈ 55.2 µM) | 0.8 (≈ 1.77 µM) | 25 (≈ 55.2 µM) | 25 (≈ 55.2 µM) | 25 (≈ 55.2 µM) | –
